Experimental data taken from US7915245B2, “Methods and compositions of trail-death receptor agonists/activators” (The Board of Regents of the University of Texas System, priority 2007, dated 2011).

Key:
[1] = system: human normal mammary epithelial cells (HMECs); experiment: XTT cell viability, normal mammary epithelial cells; format: cell-based; conditions: 72 h
Procedure: (§1) FIG. 21. DRAs have no effect on cell viability in human normal mammary epithelial cells (HMECs), HMECs were treated with DRA11, DRA9 and DRA9S for 72 h. At the end of incubation period, cell viability was measured by XTT assay. Data represent the mean±S.D. Control refers to group treated with DMSO (0.01%).
FIGS. 60 A, B & C. DRAs has no effect on cell viability of human normal mammary, prostate and lung epithelial cells. Human normal mammary (FIG. 60A), prostate (FIG. 60B) and lung (FIG. 60C) epithelial cells were treated with DRA11 (0-25 μM) for 72 h, and cell viability was measured by XTT assay.
XTT Assay. Cells (1×10^4 cells per well) were seeded in 96-well plates (flat bottom), and treated with death receptor agonists/activators/small molecules in the presence or absence of TNF-related apoptosis inducing ligand (TRAIL). Plates were incubated for various time points at 37° C. and 5% CO2. […] The spectrophotometric absorbance of the sample was measured using a microtitre plate (ELISA) reader. The wavelength to measure absorbance of the formazan product was 450 nm, and the reference wavelength was 650 nm.
HMECs were treated with DRA11, DRA9 and DRA9S for 72 h. At the end of incubation period, cell viability was measured by XTT assay. […]

[2] = system: mesothelioma MS1 cell line; experiment: XTT cell viability, mesothelioma MS1; format: cell-based; conditions: then DRA 72 h; for effect of NFκB inhibitor MG132 on the inhibitory effect on cell viability: MG132 2.5 μM 4 h
Procedure: FIG. 44. […] Mesothelioma MS1 cells were treated with NFκB inhibitor MG132 (2.5 μM) for 4 h followed by treatment with various concentrations of DRA11, DRA9, and DRA9S for 72 h. At the end of incubation, cell viability was measured by XTT assay. Data represent the mean±S.D.
FIG. 54. […] MS1 cells were pretreated with either control peptide (10 μM) or pan caspase inhibitor (z-VAD-fmk, 25 μM) for 2 h, followed by treatment with various doses of DRA11, DRA9 and DRA9S for 72 h. At the end of incubation, cell viability was measured by XTT assay. Data represent the mean±S.D.
(§2) XTT Assay. Cells (1×10^4 cells per well) were seeded in 96-well plates (flat bottom), and treated with death receptor agonists/activators/small molecules in the presence or absence of TNF-related apoptosis inducing ligand (TRAIL). Plates were incubated for various time points at 37° C. and 5% CO2. Before the end of the experiment, 50 μl XTT (sodium 3′[1-(phenylaminocarbonyl)-3,4-tetrazolium]-bis(4-methoxy-6-nitro) benzene sulfonic acid hydrate) labeling mixture (final concentration, 125 μM sodium XTT and 25 μM PMS) per well was added and plates were incubated for a further 4 h at 37° C. and 5% CO2. The spectrophotometric absorbance of the sample was measured using a microtitre plate (ELISA) reader. The wavelength to measure absorbance of the formazan product was 450 nm, and the reference wavelength was 650 nm.

AsPC-1 cells = experiment: XTT cell viability with caspase inhibitor pretreatment, AsPC-1; format: cell-based, human; conditions: then DRA 72 h; for effect of caspase-3 inhibitor (z-DEVD-fmk) on the DRA effect on cell viability: Z-DEVD-fmk 25 μM 2 h pretreatment; for effect of caspase-8 inhibitor (Ac-IETD-CHO) on the DRA effect on cell viability: caspase-8 inhibitor 25 μM 2 h pretreatment; for effect of pan caspase inhibitor (z-VAD-fmk) on the DRA effect on cell viability: inhibitor 25 μM 2 h pretreatment
Procedure: (§3) FIG. 5. […] AsPC-1 cells were pretreated with either control peptide (25 μM) or caspase-3 inhibitor (Z-DEVD-fmk, 25 μM) for 2 h, followed by treatment with various doses of DRA11, DRA9 and DRA9S for 72 h. At the end of incubation, cell viability was measured by XTT assay. Data represent the mean±S.D. Control refers to a group treated with DMSO (0.01%).
as §3, with “6.” for “5.”, “caspase-8” for “caspase-3”, “(25” for “(Z-DEVD-fmk, 25”
as §3, with “7.” for “5.”, “caspase-8” for “caspase-3”, “(25” for “(Z-DEVD-fmk, 25”
as §2
(§4) AsPC-1 cells were pretreated with either control peptide (25 μM) or caspase-3 inhibitor (Z-DEVD-fink, 25 μM) for 2 h, followed by treatment with various doses of DRA11, DRA9 and DRA9S for 72 h. At the end of incubation, cell viability was measured by XTT assay. See, for example, FIG. 5. Data represent the mean±S.D. Control refers to a group treated with DMSO (0.01%).
as §4, with “caspase-8” for “caspase-3”, “(25” for “(Z-DEVD-fink, 25”, “6.” for “5.”
as §4, with “caspase-8” for “caspase-3”, “(25” for “(Z-DEVD-fink, 25”, “7.” for “5.”

[3] = system: mesothelioma M9K cell line; experiment: XTT cell viability, mesothelioma M9K; format: cell-based; conditions: then DRA 72 h; for effect of NFκB inhibitor MG132 on the inhibitory effect on cell viability: MG132 2.5 μM 4 h; for effect of pan caspase inhibitor (z-VAD-fmk) on the inhibitory effect on cell viability: z-VAD-fmk 25 μM 2 h pretreatment
Procedure: FIG. 43. […] Mesothelioma M9K cells were treated with NFκB inhibitor MG132 (2.5 μM) for 4 h followed by treatment with various concentrations of DRA11, DRA9, and DRA9S for 72 h. At the end of incubation, cell viability was measured by XTT assay. Data represent the mean±S.D.
FIG. 52. […] M9K cells were pretreated with either control peptide (10 μM) or pan caspase inhibitor (z-VAD-fmk, 25 μM) for 2 h, followed by treatment with various doses of DRA11, DRA9 and DRA9S for 72 h. At the end of incubation, cell viability was measured by XTT assay. Data represent the mean±S.D.
as §2

[4] = system: human bronchial epithelial cells (Beas2B); experiment: XTT cell viability, bronchial epithelial cells; format: cell-based; conditions: 72 h
Procedure: as §1, with “23.” for “21.”, “bronchial” for “normal mammary”, “(Beas2B). Beas2B cells” for “(HMECs), HMECs”
as §2
Beas2B cells were treated with DRA11, DRA9 and DRA9S for 72 h. At the end of incubation period, cell viability was measured by XTT assay. See, for example, FIG. 23. Data represent the mean ±S.D. Control refers to group treated with DMSO (0.01%).

Compound	effect on cell viability in HMECs [1]	effect of NFκB inhibitor MG132 on the inhibitory effect on cell viability [2]	effect of caspase-3 inhibitor (z-DEVD-fmk) on the DRA effect on cell viability (AsPC-1 cells)	effect of caspase-8 inhibitor (Ac-IETD-CHO) on the DRA effect on cell viability (AsPC-1 cells)	effect of pan caspase inhibitor (z-VAD-fmk) on the DRA effect on cell viability (AsPC-1 cells)	effect of NFκB inhibitor MG132 on the inhibitory effect on cell viability [3]	effect of pan caspase inhibitor (z-VAD-fmk) on the inhibitory effect on cell viability [3]	effect on cell viability in Beas2B cells [4]	effect of pan caspase inhibitor (z-VAD-fmk) on the inhibitory effect on cell viability ([2]; z-VAD-fmk 25 μM 2 h pretreatment)
CCOc1cc(Br)c(Br)c(/C=N/c2cccc(C(=O)O)c2C)c1O [DRA9S]	no effect	enhances the inhibitory effects	blocks the effects	blocks the effects	blocks effects	enhances the inhibitory effects	blocks the inhibitory effects	no effect	
CCOc1cc(Br)c(Br)c(/C=N/c2cccc(C(=O)O)c2)c1O [DRA9]	no effect	enhances the inhibitory effects	blocks the effects	blocks the effects	blocks effects	enhances the inhibitory effects	blocks the inhibitory effects	no effect	blocks the inhibitory effects
